Data on 2 compounds can be found in US20240423979A1, “THERAPEUTICALLY EFFECTIVE COMBINATION OF A FLT3 INHIBITOR AND A BCL-2 INHIBITOR FOR THE TREATMENT OF ACUTE MYELOID LEUKEMIA” (Hanmi Pharm. Co., Ltd., priority 2021, published 2024).

The test system of assay [1] is MOLM-13 cell line carrying the FLT3-WT/ITD heterogeneous mutation. The assay is described as follows: MOLM-13 cell line xenografted mouse model, anti-tumor efficacy. Format: in vivo, nude mice. The following applies: MOLM-13 xenograft, Compound A 10 mg/kg, venetoclax 100 mg/kg; for Maximum inhibition (%): oral once a day for 14 days, combination 10 + 100 mg/kg, largest tumor inhibition rate during observation. The protocol: In a mouse model xenografted with the MOLM-13 (DSMZ no. ACC 554) cell line carrying the FLT3-WT/ITD heterogeneous mutation, a comparative or combination efficacy test of the FLT3 inhibitor, 5-chloro-N-(3-cyclopropyl-5-(((3R,5S)-3,5-dimethylpiperazine-1-yl) methyl) phenyl)-4-(6-methyl-1H-indol-3-yl) pyrimidin-2-amine (hereinafter ‘Compound A’) and the Bcl-2 inhibitor, venetoclax was conducted.
The MOLM-13 cell line was purchased from Deutsche Sammlung von Mikroorganismen und Zellkulturen (DSMZ) GmbH. To construct a mouse model xenografted with this MOLM-13 cell line, 5-week-old male nude mice were purchased from Charles River Laboratories Japan, Inc.
The MOLM-13 cell line was injected subcutaneously into nude mice at 5×10^6 cells/0.2 mL/mouse, and was allowed to grow. Mice having a tumor volume of 55 to 415 mm^3 (length×width^2×0.5) were selected on the day of administration, and after having been divided into 4 groups (3 mice each in the control group and the compound A group, 4 mice each in the venetoclax group and the compound A and venetoclax combination group) so that the average tumor volume of each group was similar, the control group was administered for 11 days, and each drug administration group received individual medications for 14 days. The control group was measured for 12 days, and each drug administration group was measured for 15 days.
The control group received an oral administration of a mixed solution of DMSO/PEG400/DW (ratio=0.5/2/7.5, volume/volume/volume) once a day, the compound A group received an oral administration once a day at a dose of 10 mg/kg/day, and the venetoclax group received an oral administration once a day at a dose of 100 mg/kg/day. […]
The maximum inhibition rate (%) and the change in weight loss (%) of mice were calculated, and the experimental results are shown in Table 2. […] The change in weight loss (%) was calculated from “(1−body weight on the measurement day/weight on the start date of administration)×100%”. Relative tumor volume was calculated from “tumor volume on measurement day/initial tumor volume×100%”.

Assay [2] deals with relapsed or refractory AML. The experiment in a line: Open-label first-in-human dose escalation, exploration and expansion study. Format: in vivo. The following applies: patients with relapsed or refractory AML, single agent, 80 mg dose daily oral. An excerpt: This study is an open-label, first-in-human, dose escalation, exploration, and expansion study of Compound A as a single agent and in combination with venetoclax in patients with relapsed or refractory AML. Cycle 1 in dose escalation is defined as 30 days, all other cycles lasting at least 28 days. Patients will receive oral Compound A at QD on a continuous basis, with the exception of Cycle 1 Day 2 in Part A. The study treatment can continue until a discontinuation criterion is met.
The initial dose level of Compound A as a single agent was 20 mg daily and the decision to dose escalate to the next dose level is made based on the assessment of safety variables including moderate toxicity (MT, a Grade 2 AE judged by the investigator to be related to study drug (except for hematologic toxicities)) or dose limiting toxicity (DLT). This study includes 3 parts: Part A: Dose Escalation; Part B: Dose Exploration; and Part C: Dose Expansion.
Part A includes the initial dose escalation cohorts. Provisional dose escalation scheme with the planned doses of Compound A are as follows: 20 mg, 30 mg, 40 mg, 60 mg, 80 mg, 120 mg, 160 mg, 200 mg, or 240 mg. Patients are treated daily in 28-day cycles except for the Cycle 1 (30 days). The DLT observation period is during Cycle 1 starting with the first dose on Day 1. […]

Assay [3] relates to MV-4-11 cell line with FLT3 ITD/ITD isogenic mutation. The experiment in a line: MV-4-11 cell line xenografted mouse model, anti-tumor efficacy. Format: in vivo, BALB/c Nude mouse. To be noted: MV-4-11 xenograft, Compound A 3 mg/kg; for Maximum inhibition (%): oral once a day for 21 days, combination 3 + 100 mg/kg, largest tumor inhibition rate during observation. An excerpt:
In a mouse model xenografted with the cell line MV-4-11 with FLT3 ITD/ITD isogenic mutation (ATCC, CRL-9591), a comparative or combination efficacy test of the FLT3 inhibitor, 5-chloro-N-(3-cyclopropyl-5-(((3R,5S)-3,5-dimethylpiperazin-1-yl) methyl) phenyl)-4-(6-methyl-1H-indol-3-yl) pyrimidin-2-amine (hereinafter ‘Compound A’), and the Bcl-2 inhibitor, 4-[4-[[2-(4-chlorophenyl)-4,4-dimethylcyclohexen-1-yl]methyl] piperazin-1-yl]-N-[3-nitro-4-(oxan-4-ylmethylamino) phenyl] sulfonyl-2-(1H-pyrrolo [2,3-b]pyridin-5-yloxy) benzamide (hereinafter ‘venetoclax’), was conducted.
MV-4-11 cell lines were purchased from the American Type Culture Collection (ATCC). To build a mouse model xenografted with this MV-4-11 cell line, a 5-week-old male BALB/c Nude mouse (hereinafter referred to as “Nude Mouse”) was purchased from Charles River Laboratories Japan, Inc.
The MV-4-11 cell line was injected subcutaneously in a nude mouse with 5×10^6 cells/0.15 mL/mouse, and was allowed to grow. Mice with a tumor volume of 80 to 300 mm^3 (length×width^2×0.5) were selected on the day of administration, separated into 4 groups (7/group) and administered for a total of 21 days so that the average tumor volume in each group was almost the same.
The control group was administered DMSO/PEG400/DW (ratio=0.5/2/7.5, volume/volume/volume) mixed solution orally once a day, and the compound A group was administered 3 mg/kg/day once a day. It was orally administered, and the venetoclax group was orally administered once a day at a dose of 100 mg/kg/day. In the combined group, compound A was administered orally once a day at a dose of 3 mg/kg/day, and venetoclax was administered orally once a day at a dose of 100 mg/kg/day. Each group was administered individual medications for 21 days.
The maximum inhibition rate (%) and the change in weight loss (%) of mice were calculated, and the experimental results are shown in Table 1. The Inhibition rate (IR) was obtained from “(1−mean of individual relative tumor volume in the drug treatment group/average of individual relative tumor volume in the control group)×100%”, and the maximum inhibition rate was the largest inhibition rate during the observation period. The change in weight loss (%) was calculated from “(1−weight on the day of measurement/weight on the start day of administration)×100%”. The relative tumor volume was calculated from “the tumor volume/initial tumor volume×100% at the date of measurement”.

Consider `Cc1ccc2c(-c3nc(Nc4cc(CN5C[C@@H](C)N[C@@H](C)C5)cc(C5CC5)c4)ncc3Cl)c[nH]c2c1` [Compound A, 5-chloro-N-(3-cyclopropyl-5-(((3R,5S)-3,5-dimethylpiperazin-1-yl)methyl)phenyl)-4-(6-methyl-1H-indol-3-yl) pyrimidin-2-amine], for which the figures for the “Maximum inhibition (%)” value in assay [1] and in assay [3] (venetoclax 100 mg/kg) were 68.1% and 54.0%, respectively. Moreover, in assay [1] (combined group on 7th day of administration), the “complete regression (mice per group)” value is given as “not observed”. In assay [2], the “clinical response (complete responses)” value is “several complete responses”. For the same compound, in assay [3] (9th day of administration, venetoclax 100 mg/kg), the “complete regression (mice out of 7)” value was “not observed”. In addition, the “partial regression (mice out of 7)” value in assay [3] (16th day of administration) is given as 1 out of 7.
Take `CC1(C)CCC(CN2CCN(c3ccc(C(=O)NS(=O)(=O)c4ccc(NCC5CCOCC5)c([N+](=O)[O-])c4)c(Oc4cnc5[nH]ccc5c4)c3)CC2)=C(c2ccc(Cl)cc2)C1` [Venetoclax, 4-[4-[[2-(4-chlorophenyl)-4,4-dimethylcyclohexen-1-yl]methyl]piperazin-1-yl]-N-[3-nitro-4-(oxan-4-ylmethylamino)phenyl] sulfonyl-2-(1H-pyrrolo [2,3-b]pyridin-5-yloxy) benzamide, reference compound]: the “Maximum inhibition (%)” value in assay [1] stood at 56.3%; in assay [3] (venetoclax 100 mg/kg) it was 76.1%.
